Experiment in all cases: minimal inhibitory concentration, agar dilution method (in vitro)
Holding throughout (type): cell-based
A general note: In agar dilution, organisms are placed on agar that contains the substance at set levels.

The test system of one test is Escherichia coli NIHJ. From the text: (§1) When determined according to the agar dilution method, the penicillins [I] afford the minimal inhibitory concentrations as shown in the following Table 1: […]
For test [1], the system named is Pseudomonas aeruginosa 104.
Source text: as §1

In test [2] the test system is Klebsiella pneumoniae 602.
Source text: as §1

A further test concerns Proteus miravilis 2425.
Source text: as §1

Test [3] deals with Staphylococcus aureus 209P.
Source text: as §1

Values after ≈ are worked out from the molar mass of the structure shown. Where a name gives a salt, the structure may show the parent alone.

What is called MIC is the lowest concentration found to suppress growth. Read a high MIC as weaker potency.

With `COc1nc(OC)c2ncc(C(=O)NC(C(=O)NC3C(=O)N4C3SC(C)(C)C4C(=O)O)c3ccccc3)c(O)c2n1` (centres unmarked) [Example 54], the MIC with Escherichia coli NIHJ was determined as 6.25 µg/mL (≈ 10.7 µM); in test [1], 6.25 µg/mL (≈ 10.7 µM); in test [2], 3.13 µg/mL (≈ 5.37 µM); against Proteus miravilis 2425, 3.13 µg/mL (≈ 5.37 µM); in test [3] it was 1.56 µg/mL (≈ 2.68 µM).

On to `CN(C)c1ncc2ncc(C(=O)NC(C(=O)NC3C(=O)N4C3SC(C)(C)C4C(=O)O)c3ccccc3)c(O)c2n1` (centres unmarked) [Example 51], for which the MIC against Escherichia coli NIHJ stood at 0.78 µg/mL (≈ 1.38 µM); in test [1], 3.13 µg/mL (≈ 5.53 µM); in test [2], 0.78 µg/mL (≈ 1.38 µM); in the test with Proteus miravilis 2425 it was 1.56 µg/mL (≈ 2.76 µM); in test [3], 0.78 µg/mL (≈ 1.38 µM).

As to `CCOc1c(C(=O)NC(C(=O)N[C@@H]2C(=O)N3[C@@H]2SC(C)(C)[C@@H]3C(=O)O)c2ccccc2)cnc2ccccc12` (some centres unmarked) [Example 13], the minimal inhibitory concentration (MIC) against Escherichia coli NIHJ is 12.5 µg/mL (≈ 22.8 µM); in test [1], 50 µg/mL (≈ 91.1 µM); in the test with Proteus miravilis 2425, 25 µg/mL (≈ 45.6 µM); in test [3], 0.2 µg/mL (≈ 0.365 µM).

Consider `CN(C)c1ncc2c(O)c(C(=O)NC(C(=O)NC3C(=O)N4C3SC(C)(C)C4C(=O)O)c3ccccc3)cnc2n1` (centres unmarked) [Example 46], for which the MIC in the test on Escherichia coli NIHJ stood at 3.13 µg/mL (≈ 5.53 µM); in test [1], 3.13 µg/mL (≈ 5.53 µM); in test [2], 1.56 µg/mL (≈ 2.76 µM); in the test with Proteus miravilis 2425 it was 3.13 µg/mL (≈ 5.53 µM); in test [3], 1.56 µg/mL (≈ 2.76 µM).

With `COc1nc(OC)c2c(O)c(C(=O)NC(C(=O)N[C@@H]3C(=O)N4[C@@H]3SC(C)(C)[C@@H]4C(=O)O)c3ccccc3)cnc2n1` (some centres unmarked) [Example 26], the MIC was 3.13 µg/mL (≈ 5.37 µM) in the test on Escherichia coli NIHJ; 3.13 µg/mL (≈ 5.37 µM) in test [1]; 3.13 µg/mL (≈ 5.37 µM) in test [2]; 3.13 µg/mL (≈ 5.37 µM) against Proteus miravilis 2425; 0.78 µg/mL (≈ 1.34 µM) in test [3].

Take `CCOC(=O)Oc1c(C(=O)NC(C(=O)N[C@@H]2C(=O)N3[C@@H]2SC(C)(C)[C@@H]3C(=O)O)c2ccccc2)cnc2cc(OC)ccc12` (some centres unmarked) [Example 17]: the minimal inhibitory concentration (MIC) against Escherichia coli NIHJ amounted to 3.13 µg/mL (≈ 5.03 µM); in test [1], 3.13 µg/mL (≈ 5.03 µM); in test [2] it was 0.39 µg/mL (≈ 0.626 µM); with Proteus miravilis 2425 it was 1.56 µg/mL (≈ 2.51 µM); in test [3] it was 0.2 µg/mL (≈ 0.321 µM).

As for `COc1nc(O)nc2c(O)c(C(=O)NC(C(=O)NC3C(=O)N4C3SC(C)(C)C4C(=O)O)c3ccccc3)cnc12` (centres unmarked) [Example 52], the MIC in the test with Escherichia coli NIHJ amounted to 3.13 µg/mL (≈ 5.51 µM); in test [1], 6.25 µg/mL (≈ 11 µM); in test [2] it was 3.13 µg/mL (≈ 5.51 µM); with Proteus miravilis 2425, 3.13 µg/mL (≈ 5.51 µM); in test [3] it was 1.56 µg/mL (≈ 2.74 µM).

In the case of `Cc1ccc2c(O)c(C(=O)N[C@@H](C(=O)N[C@@H]3C(=O)N4[C@@H]3SC(C)(C)[C@@H]4C(=O)O)c3ccccc3)cnc2n1` [Example 4, D-(-)-α-(7-methyl-4-hydroxy-1,8-naphthyridine-3-carbonamido)-benzylpenicillin potassium salt], the MIC in the test on Escherichia coli NIHJ worked out at 12.5 µg/mL; in test [1], 6.25 µg/mL; in the test with Proteus miravilis 2425 it was 6.25 µg/mL; in test [3], 0.78 µg/mL.

`CN(C)c1ccc2ncc(C(=O)NC(C(=O)NC3C(=O)N4C3SC(C)(C)C4C(=O)O)c3cccs3)c(O)c2n1` (centres unmarked) [Example 38]: the MIC against Escherichia coli NIHJ was 1.56 µg/mL (≈ 2.73 µM); in test [1], 6.25 µg/mL (≈ 11 µM); in test [2], 1.56 µg/mL (≈ 2.73 µM); against Proteus miravilis 2425 it was 1.56 µg/mL (≈ 2.73 µM); in test [3] it was 0.78 µg/mL (≈ 1.37 µM).

Consider `CC1(C)SC2C(NC(=O)C(NC(=O)c3cnc4ccc(N)nc4c3O)c3ccccc3)C(=O)N2C1C(=O)O` (centres unmarked) [Example 40], for which the MIC against Escherichia coli NIHJ was 1.56 µg/mL (≈ 2.91 µM); in test [1], 3.13 µg/mL (≈ 5.83 µM); in test [2] it was 1.56 µg/mL (≈ 2.91 µM); in the test with Proteus miravilis 2425, 1.56 µg/mL (≈ 2.91 µM); in test [3] it was 0.78 µg/mL (≈ 1.45 µM).

Take `COc1nccc2ncc(C(=O)NC(C(=O)NC3C(=O)N4C3SC(C)(C)C4C(=O)O)c3ccccc3)c(O)c12` (centres unmarked) [Example 44]: the minimal inhibitory concentration (MIC) against Escherichia coli NIHJ is 12.5 µg/mL (≈ 22.7 µM); in test [1] it was 12.5 µg/mL (≈ 22.7 µM); in test [2] it was 12.5 µg/mL (≈ 22.7 µM); in the test with Proteus miravilis 2425 it was 6.25 µg/mL (≈ 11.3 µM); in test [3], 0.78 µg/mL (≈ 1.41 µM).

Regarding `CCN(CC)c1ccc2ncc(C(=O)NC(C(=O)NC3C(=O)N4C3SC(C)(C)C4C(=O)O)c3ccccc3)c(O)c2n1` (centres unmarked) [Example 37], the MIC with Escherichia coli NIHJ was found to be 0.78 µg/mL (≈ 1.32 µM); in test [1] it was 3.13 µg/mL (≈ 5.28 µM); in test [2], 0.78 µg/mL (≈ 1.32 µM); with Proteus miravilis 2425, 1.56 µg/mL (≈ 2.63 µM); in test [3] it was 0.78 µg/mL (≈ 1.32 µM).

Consider `CC1(C)SC2C(NC(=O)C(NC(=O)c3cnc4cnc(NC(=O)OCc5ccccc5)nc4c3O)c3ccccc3)C(=O)N2C1C(=O)O` (centres unmarked) [Example 57], for which the minimal inhibitory concentration (MIC) in the test on Escherichia coli NIHJ came out at 6.25 µg/mL (≈ 9.3 µM); in test [1], 6.25 µg/mL (≈ 9.3 µM); in test [2], 3.13 µg/mL (≈ 4.66 µM); against Proteus miravilis 2425, 3.13 µg/mL (≈ 4.66 µM); in test [3] it was 1.56 µg/mL (≈ 2.32 µM).

Regarding `COc1ccc2ncc(C(=O)NC(C(=O)N[C@@H]3C(=O)N4[C@@H]3SC(C)(C)[C@@H]4C(=O)O)c3ccccc3)c(O)c2n1` (some centres unmarked) [Example 28], the MIC stood at 1.56 µg/mL (≈ 2.83 µM) in the test on Escherichia coli NIHJ; 3.13 µg/mL (≈ 5.67 µM) in test [1]; 3.13 µg/mL (≈ 5.67 µM) in test [2]; 1.56 µg/mL (≈ 2.83 µM) against Proteus miravilis 2425; 0.78 µg/mL (≈ 1.41 µM) in test [3].

Source of the values: US3951955A, “Penicillins substituted with heterocyclic groups” (Sumitomo Chemical Company, Limited, priority 1970, dated 1976).
